Experiments:
[1] = system: dogs; experiment: Chronic toxicity in dogs; format: in vivo; conditions: 24 weeks, 125 and 250 mg/kg oral, 200 mg/kg by inhalation
Protocol: The chronic toxicity of TBPG has been investigated in rats and dogs treated for a period of 24 weeks with 125 mg/kg and 250 mg/kg by the oral route and 200 mg/kg by inhalation.

[2] = system: albino Sprague-Dawley rats; experiment: Toxicity in the fetus, rats; format: in vivo; conditions: daily oral and subcutaneous, 250 and 500 mg/kg, four weeks prior to coupling and twenty days of gestation
Source text: Toxicity in the fetus of TBPG has been studied in albino Sprague-Dawley rats and in New Zealand rabbits. In the case of rats both male and female, the treatment has been initiated four weeks prior to coupling and then has been continued only in the females during the twenty days of gestation.
In the case of female rabbits, the treatment has been carried out during the twenty eight days of gestation.

[3] = system: guinea pigs; experiment: Protective activity in subacute bronchitis induced by inhalation of citric acid; format: in vivo; conditions: 7.5% citric acid inhalation, oral, rectal or inhalation, 50 and 200 mg/kg, two weeks
[4] = system: rabbits; experiment: Secretory activity in rabbits (bronchial secretion); format: in vivo
Source text: This activity has been determined using the method described by E. M. Boyd and C. F. Boyd, modified by P. C. Braga, et al described in Bronchial Hypersecretion, 1973. This activity has been determined every hour for a period of four hours by measuring the amount of bronchial secretion derived from the laryngo-tracheal organs and from the tracheo-bronchial organs of rabbits.

[5] = system: rats; experiment: Protective activity of the liver in the intoxication caused by CCl4 (BSF elimination); format: in vivo; conditions: rats intoxicated with CCl4; 200 and 400 mg/kg orally, 14 days; BSF 10 mg/kg i.v. on day 15; proportionate to the dosage
Protocol: The animals, that is rats, were intoxicated with CCl4 for a period of seven days. They were treated during the same days and for a subsequent period of seven days with TBPG in the dose of 200 and 400 mg/kg orally and with α-mercaptopropionylglycine in the dose of 90 and 180 mg/kg orally. On the fifteenth day, the rats have been treated with BSF in the amount of 10 mg/kg intravenously.

[6] = system: rats; experiment: Action on the period of sleep induced by barbiturates; format: in vivo; conditions: rats intoxicated with CCl4; 200 and 400 mg/kg orally, two days; clear correlation between dosage and effect
Protocol: The activity of TBPG administered for two days in the dose of 200 and 400 mg/kg orally, has been determined on the basis of the reduction of the period of sleep induced by Nembutal on rats intoxicated with CCl4.

[7] = Isothermic (accelerated) stability according to the method of Garret, TLC; format: physicochemical
Protocol: The tests of accelerated stability have been carried out with the substance in powder form, that is in glass vials, hermetically closed with a plastic screw cap and also with the substance dissolved in water, that is 500 mg in 10 cc in a transparent glass container of 20 cc capacity closed with a plastic screw cap.
The production of impurities, if any, due to degradation of the substance, has been determined by means of TLC.

[8] = Stability to light; format: physicochemical; conditions: powder form, light of a 60 watt lamp, three months
[9] = Stability to moisture; format: physicochemical; conditions: open vials, 90% relative humidity, a month
Protocol: Samples of TBPG and MPG have been maintained in open vials at room temperature under conditions of 90% relative humidity and at 50° C. always with 90% relative humidity. After a month of exposure, the following observations have been made.

[10] = Solubility; format: physicochemical
Source text: The structure of the compound is confirmed by analytical and spectroscopic analysis, specifically IR and NMR spectra. The compound is in the form of a white micro-cyrstalline powder, odorless and almost tasteless. It is soluble in a saturated solution of sodium bicarbonate and in other basic solutions. The substance is insoluble in water, soluble in warm ethanol.

[11] = Clinical tolerance with respect to gastric reactions; conditions: in vivo
[12] = with respect to the control animals

COc1cc(C(=O)SC(C)C(=O)NCC(=O)O)cc(OC)c1OC (stereo not drawn) [TBPG, α-(3,4,5-trimethoxybenzoyl)thiopropionylglycine]
chronic toxicity (symptoms, behavior, deaths, body growth, hematology, hepatic and renal functions, organs) [1]: totally innocuous | toxicity in the fetus (deformation, number and weight of living offspring) [2]: has not induced any deformation in the fetus and has not affected the number and the weight of the living offspring | mortality index [3]: substantially reduced | protective action on bronchial conditions (macro and micro examination of the lungs) [3]: effective protective action in proportion to the dose | laryngo-bronchial secretion ([4]; oral, rectal or inhalation, 50 and 200 mg/kg, every hour for four hours): increase in a significant manner and proportionally to the dosage | laryngo-tracheal secretion [4, 12]: equal to the activity of α-mercaptopropionylglycine | tracheo-bronchial secretion [4, 12]: more substantial activity | elimination of BSF (hematic concentrations) [5]: favors the elimination of BSF in a statistically significant manner | reduction of the period of sleep induced by Nembutal [6]: very substantial | Chromatographic Impurities ([7]; Powder, 60°, 320 hours): Absent | Chromatographic Impurities ([7]; Powder, 70°, 120 hours): Absent | Chromatographic Impurities ([7]; Powder, 70°, 240 hours): Absent | Chromatographic Impurities ([7]; Powder, 80°, 45 hours): Absent | Chromatographic Impurities ([7]; Powder, 80°, 180 hours): Absent | Chromatographic Impurities ([7]; Solution (500 mg in 10 cc water), 60°, 0 hours): Absent | Chromatographic Impurities ([7]; Solution (500 mg in 10 cc water), 60°, 320 hours): Absent | degraded at 640 h ([7]; Solution (500 mg in 10 cc water), 60°, 640 hours, read-out: Chromatographic Impurities): 0.5% | degraded at 960 h ([7]; Solution (500 mg in 10 cc water), 60°, 960 hours, read-out: Chromatographic Impurities): 0.7% | degraded at 1280 h ([7]; Solution (500 mg in 10 cc water), 60°, 1280 hours, read-out: Chromatographic Impurities): 1.2% | degraded at 1600 h ([7]; Solution (500 mg in 10 cc water), 60°, 1600 hours, read-out: Chromatographic Impurities): 1.3% | Chromatographic Impurities ([7]; Solution (500 mg in 10 cc water), 70°, 180 hours): Absent | degraded at 240 h ([7]; Solution (500 mg in 10 cc water), 70°, 240 hours, read-out: Chromatographic Impurities): 1.1% | degraded at 480 h ([7]; Solution (500 mg in 10 cc water), 70°, 480 hours, read-out: Chromatographic Impurities): 1.2% | Chromatographic Impurities ([7]; Solution (500 mg in 10 cc water), 80°, 45 hours): Absent | degraded at 90 h ([7]; Solution (500 mg in 10 cc water), 80°, 90 hours, read-out: Chromatographic Impurities): 1.2% | degraded at 120 h ([7]; Solution (500 mg in 10 cc water), 80°, 120 hours, read-out: Chromatographic Impurities): 1.3% | stability to light [8]: undergoes no change | stability to moisture ([9]; 50° C.): slight yellow color, but no degradation products | stability to moisture ([9]; room temperature (t.a.)): no decomposition | solubility ([10]; saturated solution of sodium bicarbonate and other basic solutions): soluble | solubility ([10]; warm ethanol): soluble | solubility ([10]; water): insoluble | clinical tolerance with respect to gastric reactions [11]: optimum clinical tolerance
